In US11324725B2, “Compositions and methods for the inhibition of pruritus” (The United States of America, as represented by the …, priority 2017, dated 2022):
Entries after “also recorded” stand apart in the source; their conditions may differ.

Assays:
[1] = test system: soluble guanylate cyclase / pGloSensor-40F reporter in HEK-cGMP-sensor cells; experiment: Counter-screen, SNP-stimulated HEK-cGMP-sensor cells; assay type: cell-based, human
Description: In order to identify small molecular compounds that inhibit the Npr1 receptor a high-throughput assay to probe inhibition of the receptor guanylate cyclase Npr1 was developed. The assay was designed taking advantage of Promega's GloSensor™ technology (Promega, Madison, Wis.). This technology involves the expression of a cyclic guanosine monophosphate (cGMP) biosensor, comprised of a firefly luciferase variant that was coupled to the cGMP binding domain of human phosphodiesterase 5A, and loading of cells with a cell-permeable luciferase substrate to monitor cGMP production by Npr1 in real time in live cells. Briefly, human embryonic kidney 293 cells stably expressing the human Npr1 and the pGloSensor™-40F cGMP vector (“pGloSensor™-40F”) were generated. Stimulating these cells with the Npr1 agonists human NppA or NppB, luciferase-induced light production could be detected in a dose-dependent manner. HEK293 cells stably expressing human Npr2 and pGS-40F and cells only expressing pGS-40F were also generated to conduct secondary counter screens. In these cells, NppC or sodium nitroprusside were used to stimulate Npr2 or soluble guanylate cyclase which is endogenously expressed in HEK293 cells, respectively. The Npr2-NppC counter screen was employed to search for agents that minimally effected this agonist-receptor interaction. The Npr2-NppC system was used because the side effects of most drugs occur on related receptors. Npr1 and Npr2 are the most related receptors in sequence and function and there are no additional active receptor subtypes in this family of receptors. The procedure is described in detail below.
First, hNpr1 assays were repeated, at 11 concentrations on all selected compounds, to validate all positive compounds from the primary screen. This confirmed the selection criteria used for the selection of the active compounds. […]

[2] = test system: HEK-hNpr1-cGMP-sensor cells; experiment: Cytotoxicity counter-screen (CellTiter-Glo); assay type: cell-based, human; details: for Imax, cytotoxicity: −100% = 115 μM Digitonin, n.d. = inhibition not detectable at all
Protocol: (§1) Compound cytotoxicity was tested with Promega's CellTiter-Glo™ assay which measures cellular adenosine triphosphate content, a surrogate of metabolic activity, with a firefly luciferase reagent. A cytotoxicity counter-screen using HEK-hNpr1-cGMP-sensor cells was performed on the 1,408 follow-up compounds. Cells (1.5×10^3) cells were plated in 4 μL C02-independent media in white, solid bottom TC-treated 1536-well plates (Greiner Bio-One). Cells were incubated at 37° C., 5% CO2 and 95% humidity for 16 hours. Compound transfer was performed as described for qHTS along with DMSO and a titration of Digitonin from a top concentration of 115 μM to 3.5 nM in columns 1-4 of each assay plate as vehicle and cytotoxicity controls, respectively. Cells were incubated with compound for 2 hours at 37° C. CellTiter-Glo™ reagent (Promega) (3 μl) was added to each well with a BioRAPTR Flying Reagent Dispenser™ (Beckman Coulter) and plates were incubated for 10 min at room temperature, protected from light. Luminescence was measured on a ViewLux™ plate reader. Data were normalized to the average signal of DMSO-treated wells as 0% and the average signal of wells treated with 115 μM Digitonin as −100% activity and analyzed as above.

[3] = Cytotoxicity counter-screen (CellTiter-Glo); assay type: cell-based, human; details: human, HEK-hNpr1-cGMP-sensor cells; 2 hours with compound, CellTiter-Glo
Protocol: as §1

Firefly luciferase = Firefly luciferase (Photinus pyralis, UniProt P08659); experiment: Biochemical Firefly luciferase enzymatic counter-screen; details: for Direct effect on Firefly luciferase (in words): FLuc in vitro; for Imax, Fluc in vitro: −100% = 57.5 μM PTC124, n.d. = inhibition not detectable at all
Protocol: Direct effects of compounds on firefly luciferase enzymatic activity were tested in vitro. A Firefly luciferase enzyme assay was performed on the 1,408 follow-up compounds. To achieve half-maximal reaction velocity, the D-Luciferin substrate concentration equaled Km and the assay was otherwise performed according to Jang et al., ACS Chem. Bio., 7: 1205-1213 (2012) (which is incorporated herein by reference, in its entirety), as follows: 3 μl of substrate-buffer solution (0.01 mM D-Luciferin, 0.01 mM ATP, 50 mM Tris Acetate, 10 mM Mg Acetate, 0.01% Tween-20 and 0.038% BSA final concentrations) were dispensed into white, solid bottom medium bind 1536-well plates (Greiner Bio-One) with a BioRAPTR Flying Reagent Dispenser™ (Beckman Coulter). Compounds were transferred as described for qHTS along with DMSO (as a negative control) and titrations of PTC124 (as a positive control), ranging from the top concentration of 57.5 μM to 4.0 μM in columns 1-4 of each plate as vehicle and positive controls, respectively. Luciferase enzyme-buffer solution (1 μl) (10 nM P. pyralis luciferase in 50 mM Tris Acetate final concentration) was dispensed and after a 5-minute incubation at room temperature, luminescence was read on a ViewLux™ plate reader.

[4] = Rat liver microsome stability assay; assay type: in vitro ADME; details: pH 7.4; rat liver microsomes
Protocol: Single time point microsomal stability was determined in a 96-well HTS format. Sample preparation was automated using an EVO 200 robot (Tecan, Switzerland). A high-resolution LC/MS (Thermo QExactive, ThermoFisher (Waltham, Mass.)) instrument was used to measure the percentage of compound remaining after incubation using a known method. Six standard controls were tested in each run: buspirone and propranolol (for short half-life), loperamide and diclofenac (for short to medium half-life), and carbamazepine and antipyrine (for long half-life). Briefly, the incubation consisted of 0.5 mg/mL microsomal protein, 1.0 μM compound concentration, and NADPH regeneration system (containing 0.650 mM NADP+, 1.65 mM glucose 6-phosphate, 1.65 mM MgCl2, and 0.2 U/mL G6PDH) in 100 mM phosphate buffer at pH 7.4. The incubation was carried out at 37° C. for 15 min. The reaction was quenched by adding 555 μL of acetonitrile (1:2 ratio) containing 0.28 μM albendazole (internal standard).

Chain of Firefly luciferase (P08659 whole entry): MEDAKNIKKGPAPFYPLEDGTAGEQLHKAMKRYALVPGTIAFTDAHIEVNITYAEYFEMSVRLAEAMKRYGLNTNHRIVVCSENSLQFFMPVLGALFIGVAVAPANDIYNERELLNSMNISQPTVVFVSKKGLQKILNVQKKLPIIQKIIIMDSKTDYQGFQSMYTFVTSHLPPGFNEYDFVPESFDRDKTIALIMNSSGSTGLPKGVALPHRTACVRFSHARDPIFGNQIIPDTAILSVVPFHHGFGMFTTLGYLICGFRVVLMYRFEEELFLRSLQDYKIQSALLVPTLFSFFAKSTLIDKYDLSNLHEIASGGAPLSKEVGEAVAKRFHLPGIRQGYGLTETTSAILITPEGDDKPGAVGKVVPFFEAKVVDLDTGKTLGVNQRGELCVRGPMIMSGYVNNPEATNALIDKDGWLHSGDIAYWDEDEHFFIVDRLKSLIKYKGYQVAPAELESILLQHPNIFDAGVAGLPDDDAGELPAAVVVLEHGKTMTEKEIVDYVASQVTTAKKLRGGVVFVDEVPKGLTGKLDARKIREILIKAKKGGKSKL

| Compound | Effect on SNP-induced GloSensor signals (in words) [1] | Cytotoxicity (in words) [2] | Imax, cytotoxicity [2] [%] | IC50 at 2 h [3] [µM] | Direct effect on Firefly luciferase (in words) (Firefly luciferase) | Imax, Fluc in vitro (Firefly luciferase) [%] | half-life at 1 μM [4] [min] | IC50 (Firefly luciferase) [µM] |
| --- | --- | --- | --- | --- | --- | --- | --- | --- |
| Cc1nn2c(c1-c1ccccc1OCc1ccccc1)N(C(=O)Cc1ccc3c(c1)OCO3)CCC2 [JS-8, 2-(benzo[d][1,3]dioxol-5-yl)-1-(3-(2-(benzyloxy)phenyl)-2-methyl-6,7-dihydropyrazolo[1,5-a]pyrimidin-4(5H)-yl)ethan-1-one] | do not attenuate SNP dependent cGMP sensor activation; also recorded: does not block SNP-induced GloSensor™ signals | are not cytotoxic; also recorded: does not produce cytotoxicity | −22 ± 29 | 49 ± 14 | do not directly inhibit luciferase; also recorded: does not inhibit Firefly luciferase |  |  |  |
| Cc1noc(C)c1-c1cc(-c2ccccc2Oc2ccccc2)cn2cncc12 [JS-5, 3,5-dimethyl-4-(6-(2-phenoxyphenyl)imidazo[1,5-a]pyridin-8-yl)isoxazole] | do not attenuate SNP dependent cGMP sensor activation; also recorded: does not block SNP-induced GloSensor™ signals | are not cytotoxic; also recorded: does not produce cytotoxicity |  |  | do not directly inhibit luciferase; also recorded: does not inhibit Firefly luciferase |  |  |  |
| COc1ccccc1-c1n[nH]c2ncc(C(=O)NCc3cccnc3)nc12 [JS-6, 3-(2-methoxyphenyl)-N-(pyridin-3-ylmethyl)-1H-pyrazolo[3,4-b]pyrazine-5-carboxamide] |  |  | −36 ± 87 | 45 ± 43 |  |  |  |  |
| Cl.O=C1Nc2ccccc2CN(CC2CCCCC2)C12CCNCC2 [JS-1, 4-(cyclohexylmethyl)-4,5-dihydrospiro[benzo[e][1,4]diazepine-3,4′-piperidin]-2(1H)-one hydrochloride] |  |  |  |  |  | −3 ± 3 |  |  |
| Cc1cc(CNC(=O)c2ccc3c(c2)n(CC2CC2)c(=O)n3C2CCCCC2)on1 [JS-11, 1-cyclohexyl-3-(cyclopropylmethyl)-N-((3-methylisoxazol-5-yl)methyl)-2-oxo-2,3-dihydro-1H-benzo[d]imidazole-5-carboxamide] | do not attenuate SNP dependent cGMP sensor activation; also recorded: does not block SNP-induced GloSensor™ signals | are not cytotoxic; also recorded: does not produce cytotoxicity |  |  | do not directly inhibit luciferase; also recorded: does not inhibit Firefly luciferase |  | 12.4 |  |
| CCC(CC)c1cc([C@H]2CN3CC[C@H]2C[C@@H]3CNS(=O)(=O)c2cccs2)nc(-c2ccncc2)n1 [JS-3, N-(((2R,4S,5R)-5-(6-(pentan-3-yl)-2-(pyridin-4-yl)pyrimidin-4-yl)quinuclidin-2-yl)methyl)thiophene-2-sulfonamide] |  |  |  |  |  | −1 ± 6 |  | 25 ± 4 |
